From patent US20220313701A1, “MODULATORS OF TREX1” (Constellation Pharmaceuticals, Inc., priority 2019, published 2022)

Columns and labels:
[1] = molecular target: T1, full length human TREX1 (Homo sapiens, UniProt Q9NSU2); test: TREX1 Biochemical Assay (fluorescence assay, degradation of dsDNA substrate); conditions: 150 pM TREX1, 60 nM dsDNA substrate, 25 minutes at room temperature
T1 construct: N-terminally His-Tev tagged full length human TREX1; His-Tev (His tag with TEV site) (N); made in house; host or cells: E. coli
T1 sequence (Q9NSU2 1-314): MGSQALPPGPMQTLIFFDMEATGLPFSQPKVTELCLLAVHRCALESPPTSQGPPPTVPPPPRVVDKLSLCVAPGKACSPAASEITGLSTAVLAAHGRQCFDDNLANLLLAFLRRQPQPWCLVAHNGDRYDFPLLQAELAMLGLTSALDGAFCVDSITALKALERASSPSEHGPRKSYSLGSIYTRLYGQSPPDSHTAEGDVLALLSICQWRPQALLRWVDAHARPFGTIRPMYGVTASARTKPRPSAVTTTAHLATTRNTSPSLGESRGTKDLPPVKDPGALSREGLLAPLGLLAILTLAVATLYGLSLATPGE
Method: Degradation of the dsDNA liberates free fluorophore to produce a fluorescent signal. Specifically, 7.5 μL of N-terminally His-Tev tagged full length human TREX1 (expressed in E. coli and purified in house) in reaction buffer (50 mM Tris (pH 7.4), 150 mM NaCl, 2 mM DTT, 0.1 mg/mL BSA, 0.01% (v/v) Tween-20 and either 100 mM MgCl2) was added to a 384-well Black ProxiPlate Plus (Perkin Elmer) which already contained compound (150 nL) at varying concentrations as a 10 point dose-response in DMSO. To this was added 7.5 μL of dsDNA substrate (Strand A: 5′ TEX615/GCT AGG CAG 3′; Strand B: 5′ CTG CCT AGC/IAbRQSp (Integrated DNA Technologies)) in reaction buffer. Final concentrations were 150 pM TREX1, 60 nM dsDNA substrate in reaction buffer with 1.0% DMSO (v/v). After 25 minutes at room temperature, reactions were quenched by the addition of 5 μL of stop buffer (same as reaction buffer plus 200 mM EDTA). Final concentrations in the quenched reaction were 112.5 pM TREX1, 45 nM DNA and 50 mM EDTA in a volume of 20 μL. After a 5-minute incubation at room temperature, plates were read in a laser sourced Envision (Perkin-Elmer), measuring fluorescence at 615 nm following excitation w/570 nm light. IC50 values were calculated by comparing the measured fluorescence at 615 nm ratio relative to control wells pre-quenched w/stop buffer (100% inhibition) and no inhibitor (0% inhibition) controls as using non-linear least square four parameter fits and either Genedata or GraphPad Prism (GraphPad Software, Inc.).

[2] = molecular target: T2, human TREX2 (residues M44-A279) (Homo sapiens, UniProt Q9BQ50); test: TREX2 Biochemical Assay (fluorescence assay, degradation of dsDNA substrate); conditions: 2.5 nM TREX2, 60 nM dsDNA substrate, 25 minutes at room temperature
T2 construct: human TREX2 (residues M44-A279, expressed in E. coli); His-Tev (His tag with TEV site) (N); made in house; host or cells: E. coli
T2 sequence (Q9BQ50 44-279 isoform Q9BQ50-1): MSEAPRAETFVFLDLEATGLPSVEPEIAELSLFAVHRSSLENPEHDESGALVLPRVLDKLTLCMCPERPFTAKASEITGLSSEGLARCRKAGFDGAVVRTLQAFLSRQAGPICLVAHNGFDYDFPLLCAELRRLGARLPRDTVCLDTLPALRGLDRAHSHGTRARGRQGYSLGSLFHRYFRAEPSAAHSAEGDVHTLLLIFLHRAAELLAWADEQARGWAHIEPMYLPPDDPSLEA
Method: Degradation of the dsDNA liberates free fluorophore to produce a fluorescent signal. Specifically, 7.5 μL of N-terminally His-Tev tagged human TREX2 (residues M44-A279, expressed in E. coli and purified in house) in reaction buffer (50 mM Tris (pH 7.4), 150 mM NaCl, 2 mM DTT, 0.1 mg/mL BSA, 0.01% (v/v) Tween-20 and 100 mM MgCl2) was added to a 384-well Black ProxiPlate Plus (Perkin Elmer) which already contained compound (150 nL) at varying concentrations as a 10 point dose-response in DMSO. To this was added 7.5 μL of dsDNA substrate (Strand A: 5′ TEX615/GCT AGG CAG 3′; Strand B: 5′ CTG CCT AGC/IAbRQSp (IDT)) in reaction buffer. Final concentrations were 2.5 nM TREX2, 60 nM dsDNA substrate in reaction buffer with 1.0% DMSO (v/v). After 25 minutes at room temperature, reactions were quenched by the addition of 5 μL of stop buffer (same as reaction buffer plus 200 mM EDTA). Final concentrations in the quenched reaction mixture were […] TREX2, 45 nM DNA and 50 mM EDTA in a volume of 20 μL. After a 5-minute incubation at room temperature, plates were read in a laser sourced Envision (Perkin-Elmer), measuring fluorescence at 615 nm following excitation w/570 nm light. IC50 values were calculated by comparing the measured fluorescence at 615 nm ratio relative to control wells pre-quenched w/stop buffer (100% inhibition) and no inhibitor (0% inhibition) controls as using non-linear least square four parameter fits and either Genedata or GraphPad Prism (GraphPad Software, Inc.).

IC50 [1]	IC50 [2]	SMILES
1000 to 10000 nM	> 100 µM	Cc1nn(C)cc1-c1cncc(N2CC[C@@](O)(c3ccc(F)c(F)c3)C[C@@H]2C)n1 (racemic) [Example 102, (rac)-cis-4-(3,4-difluorophenyl)-1-(6-(1,3-dimethyl-1H-pyrazol-4-yl)pyrazin-2-yl)-2-methylpiperidin-4-ol]
1000 to 10000 nM	> 100 µM	Cc1nn(C)cc1-c1cncc(N2CC[C@@](O)(c3ccc(F)c(F)c3)C[C@H]2C)n1 (racemic) [Example 103, (rac)-trans-4-(3,4-difluorophenyl)-1-(6-(1,3-dimethyl-1H-pyrazol-4-yl)pyrazin-2-yl)-2-methylpiperidin-4-ol]
1000 to 10000 nM	10 to 100 µM	OC1(c2ccc(Cl)cc2)CCN(c2cncc(-n3cccn3)n2)CC1 [Example 1, 1-(6-(1H-pyrazol-1-yl)pyrazin-2-yl)-4-(4-chlorophenyl)piperidin-4-ol]
> 10000 nM	> 100 µM	COc1ccc(C2(O)CCN(c3cncc(-n4cccn4)n3)CC2)cc1 [Example 2, 1-(6-(1H-pyrazol-1-yl)pyrazin-2-yl)-4-(4-methoxyphenyl)piperidin-4-ol]
> 10000 nM	> 100 µM	OC1(c2ccccc2F)CCN(c2cncc(-n3cccn3)n2)CC1 [Example 3, 1-(6-(1H-pyrazol-1-yl)pyrazin-2-yl)-4-(2-fluorophenyl)piperidin-4-ol]
100 to 1000 nM	10 to 100 µM	Cn1cc(-c2cncc(N3CCC(O)(c4ccc(F)c(F)c4)CC3)n2)cn1 [Example 4, 4-(3,4-difluorophenyl)-1-(6-(1-methyl-1H-pyrazol-4-yl)pyrazin-2-yl)piperidin-4-ol]
> 10000 nM	> 100 µM	Cn1cc(-c2cncc(N3CCC(O)(Cc4ccccc4)CC3)n2)cn1 [Example 5, 4-benzyl-1-(6-(1-methyl-1H-pyrazol-4-yl)pyrazin-2-yl)piperidin-4-ol]
> 10000 nM	> 100 µM	Cn1cc(-c2cncc(N3CCC(O)(CCc4ccccc4)CC3)n2)cn1 [Example 6, 1-(6-(1-methyl-1H-pyrazol-4-yl)pyrazin-2-yl)-4-phenethylpiperidin-4-ol]
1000 to 10000 nM	> 100 µM	Cn1cc(-c2cncc(N3CCC(O)(c4ccc(F)cc4)CC3)n2)cn1 [Example 7, 4-(4-fluorophenyl)-1-(6-(1-methyl-1H-pyrazol-4-yl)pyrazin-2-yl)piperidin-4-ol]
100 to 1000 nM	> 100 µM	Cc1nn(C)cc1-c1cncc(N2CCC(O)(c3ccc(F)cc3)CC2)n1 [Example 8, 1-(6-(1,3-dimethyl-1H-pyrazol-4-yl)pyrazin-2-yl)-4-(4-fluorophenyl)piperidin-4-ol]
< 100 nM	10 to 100 µM	Cc1nn(C)cc1-c1cncc(N2CCC(O)(c3ccc(F)c(F)c3)CC2)n1 [Example 9, 4-(3,4-difluorophenyl)-1-(6-(1,3-dimethyl-1H-pyrazol-4-yl)pyrazin-2-yl)piperidin-4-ol]
< 100 nM	10 to 100 µM	Cn1cc(-c2cncc(N3CCC(O)(c4ccc(F)c(F)c4)CC3)n2)c(C(F)(F)F)n1 [Example 10, 4-(3,4-difluorophenyl)-1-(6-(1-methyl-3-(trifluoromethyl)-1H-pyrazol-4-yl)pyrazin-2-yl)piperidin-4-ol]
100 to 1000 nM	10 to 100 µM	Cn1cc(-c2cncc(N3CCC(O)(c4ccc(F)c(F)c4)CC3)n2)c(C2CC2)n1 [Example 11, 1-(6-(3-cyclopropyl-1-methyl-1H-pyrazol-4-yl)pyrazin-2-yl)-4-(3,4-difluorophenyl)piperidin-4-ol]
1000 to 10000 nM	> 100 µM	Cc1c(-c2cncc(N3CCC(O)(c4ccc(F)cc4)CC3)n2)cnn1C [Example 12, 1-(6-(1,5-dimethyl-1H-pyrazol-4-yl)pyrazin-2-yl)-4-(4-fluorophenyl)piperidin-4-ol]
1000 to 10000 nM	> 100 µM	OC1(c2ccc(F)cc2)CCN(c2cncc(-c3cnn(C(F)F)c3)n2)CC1 [Example 13, 1-(6-(1-(difluoromethyl)-1H-pyrazol-4-yl)pyrazin-2-yl)-4-(4-fluorophenyl)piperidin-4-ol]
1000 to 10000 nM	> 100 µM	OC1(c2ccc(F)cc2)CCN(c2cncc(-c3cnn(Cc4ccccc4)c3)n2)CC1 [Example 14, 1-(6-(1-benzyl-1H-pyrazol-4-yl)pyrazin-2-yl)-4-(4-fluorophenyl)piperidin-4-ol]
100 to 1000 nM	> 100 µM	Cc1ccc(-c2cncc(N3CCC(O)(c4ccc(F)cc4)CC3)n2)cn1 [Example 15, 4-(4-fluorophenyl)-1-(6-(6-methylpyridin-3-yl)pyrazin-2-yl)piperidin-4-ol]
1000 to 10000 nM	> 100 µM	OC1(c2ccc(F)cc2)CCN(c2cncc(-c3cccnc3)n2)CC1 [Example 16, 4-(4-fluorophenyl)-1-(6-(pyridin-3-yl)pyrazin-2-yl)piperidin-4-ol]
100 to 1000 nM	10 to 100 µM	Cc1ccc(-c2cncc(N3CCC(O)(c4ccc(F)c(F)c4)CC3)n2)c(C)n1 [Example 17, 4-(3,4-difluorophenyl)-1-(6-(2,6-dimethylpyridin-3-yl)pyrazin-2-yl)piperidin-4-ol]
1000 to 10000 nM	> 100 µM	OC1(c2ccc(F)cc2)CCN(c2cncc(-c3cncnc3)n2)CC1 [Example 18, 4-(4-fluorophenyl)-1-(6-(pyrimidin-5-yl)pyrazin-2-yl)piperidin-4-ol]
1000 to 10000 nM	> 100 µM	Cc1noc(C)c1-c1cncc(N2CCC(O)(c3ccc(F)cc3)CC2)n1 [Example 19, 1-(6-(3,5-dimethylisoxazol-4-yl)pyrazin-2-yl)-4-(4-fluorophenyl)piperidin-4-ol]
1000 to 10000 nM	> 100 µM	CN(C)C(=O)c1cccc(-c2cncc(N3CCC(O)(c4ccc(F)cc4)CC3)n2)c1 [Example 20, 3-(6-(4-(4-fluorophenyl)-4-hydroxypiperidin-1-yl)pyrazin-2-yl)-N,N-dimethylbenzamide]
1000 to 10000 nM	> 100 µM	CNC(=O)c1ccc(-c2cncc(N3CCC(O)(c4ccc(F)cc4)CC3)n2)cc1 [Example 21, 4-(6-(4-(4-fluorophenyl)-4-hydroxypiperidin-1-yl)pyrazin-2-yl)-N-methylbenzamide]
1000 to 10000 nM	> 100 µM	CS(=O)(=O)c1ccc(-c2cncc(N3CCC(O)(c4ccc(F)cc4)CC3)n2)cc1 [Example 22, 4-(4-fluorophenyl)-1-(6-(4-(methylsulfonyl)phenyl)pyrazin-2-yl)piperidin-4-ol]
1000 to 10000 nM	> 100 µM	N#Cc1ccccc1-c1cncc(N2CCC(O)(c3ccc(F)cc3)CC2)n1 [Example 23, 2-(6-(4-(4-fluorophenyl)-4-hydroxypiperidin-1-yl)pyrazin-2-yl)benzonitrile]
